Measured values published in PMC7002685, “Inhibition of vascular calcification by inositol phosphates derivatized with ethylene glycol oligomers” (Nature Communications, 2020).
Where “and” joins values, the source holds several entries; their conditions need not be identical. Equal values may be shown once. Read-outs that look alike come from different tables or passages of the source.

How the values were obtained:
primary human VSMCs [1] = test: CPP1-induced VSMC calcium deposition; format: cell-based; settings: for VSMC calcium deposition (CPP2 = 100): CPP1 50 µg Ca/mL
Protocol: Calcium deposition on cell monolayers was assessed qualitatively by staining for calcium with 2% w/v Alizarin Red S aqueous solution (pH 4.2) (05600, Fluka Analytical). Cell monolayers in 24-well plates were washed with PBS (10010015, Thermo Fischer), fixed in 10% v/v NBF in PBS (F8775, Sigma-Aldrich) for 45 min at RT, washed with milli-Q water, incubated for 3 min with 300 µL Alizarin Red S solution, washed with milli-Q, and images were acquired using a Axiovert 35 microscope (Zeiss, Carl Zeiss Microscopy GmbH, Jena, Germany) at ×100 magnification. Calcium quantitation was performed after washing cells with PBS and then decalcifying cell monolayers with 0.1 M HCl overnight at 4 °C. Acidic supernatants were centrifuged (10,000 × g, 4 °C, 10 min) and calcium content was assessed using the calcium colorimetric assay.

primary human VSMCs [2] = test: VSMC viability (MTS) in CPP2-supplemented medium; format: cell-based
Protocol: (§1) Macrophage accumulation and inflammation coincide with the initial phase of calcification. To this end, VSMCs and THP-1-derived macrophages were exposed to CPP2-supplemented medium. CPP2 prepared from human serum as described previously[61] (Supplementary Figs. 6 and 7), induced a pronounced VSMC monolayer calcification after 48 h, which was decreased by (OEG2)2-IP4 in a dose-dependent fashion, and the effect became significant at 10 µM (Fig. 3e). […] Both H2O2 (proxy for oxidative stress) and tumor necrosis factor-alpha (TNF-α) (proxy for inflammatory response) levels were assayed in the VSMC culture supernatants subsequent to CPP2 treatment with and without compounds[30]. However, no increase in H2O2 nor TNF-α compared to control could be detected in either assay. For the CPP-induced VSMC calcification assay (Fig. 3e) a roughly 10-fold higher concentration of (OEG2)2-IP4 was necessary to achieve similar activity as in the CaP-induced VSMC calcification assay (Fig. 3b). […] In the CaP assay, low inhibitor concentration may be sufficient to inhibit crystal nucleation, whereas for the CPP assay higher inhibitor concentrations may be needed to achieve sufficient particle stabilization by chemisorption of inhibitor onto CPPs. Similar results have been reported for hydrogen sulfide in the context of VC[62],[64]. […] An increase in the TNFα levels in the cell culture supernatants was not observed for (OEG2)2-IP4 with (Fig. 3h) and without (Supplementary Fig. 10) combined CPP2 treatment.
(§2) Cell viability was assessed using the MTS assay (CellTiter 96® Aqueous One Solution Cell Proliferation Assay, G3580; Promega, Madison, WI, USA) according to the manufacturer’s instructions. Assays using combined treatment of CPPs or CaP and test compounds were performed in 24-well plates using 20,000 cells per well and assays using test compounds only were performed in a 96-well plate format with a seeding density of 10,000 (VSMC) or 50,000 (THP-1) cells per well, respectively. For controls, cells were treated with respective complete medium only and results were calculated as % of control.

[3] = PK in healthy rats, i.v. bolus; format: in vivo, male Sprague-Dawley rats; settings: for Clobs / plasma concentration / Cmax / AUC(0-t) / MRT: 10 mg/kg i.v.; for half-life / Cmax / Vd / AUC(0-t) / MRT: Sprague-Dawley, rat, iv; for half-life: healthy male rats; for Cmax / Vd / AUC(0-t) / MRT: male; for Vd: read-out: apparent volume of distribution; for MRT: read-out: mean residence time (MRT) (converted)
Protocol: All PK studies in healthy animals were performed by the contract research organization Aphad S.r.l. (Milan, Italy). In all studies, compounds were administered as a salt, and the doses and plasma quantitation refer to the acid form. PK parameters listed in Supplementary Table 13 were derived from measured plasma concentrations applying noncompartmental analysis. Concentration data were extrapolated using the software Analyst™ 6.1 (Applied Biosystems, Foster City, CA, USA), the area under the plasma concentration vs. time curve (AUC) was calculated by linear trapezoidal rule using PK solver 2.0 add-in for Microsoft Excel 2007 (available for download in[83]), and a uniform weight was performed as a first general approach.
To study PK in healthy animals, male Sprague-Dawley rats (Harlan, Correzzana, Italy) were housed up to three per cage with free access to water and standard chow (pellets 12 mm, global diet 2018 certificate, Mucedola, Srl, Settimo Milanese, Italy), and submitted to a 12-h light/dark cycle. Animals were administered i.v. 10 mg/kg of (OEG2)2-IP4 in saline solution i.v. (30 s bolus, 5 mL/kg) and s.c. (5 mL/kg), respectively, in three animals per route and treatment. […] Plasma calcium concentration was determined in pre-dose samples and in t = 30 min samples of both acute and chronic treatments using the calcium colorimetric assay. Blood samples of 100 µL were drawn at several time points from the caudal vein, centrifuged at (3000 × g, 4 °C, 10 min) and stored at −80 °C until analysis by liquid chromatography–tandem mass spectrometry (LC-MS/MS).
The column used for (OEG2)2-IP4 was Kinetex C8 50 × 2.1 mm, 2.6 μm 100 A (Phenomenex, Basel, Switzerland), thermostated at 35 °C. […] Quantitation was carried out as total ion current on the sum of the MRM transitions. […] Samples were agitated 5 min on a […] orbital shaker and centrifuged (16,000 × g, 5 °C, 20 min). […] Samples were then subjected to LC-MS/MS. Rat PK samples were prepared for analysis in an analogous manner as done for spiked samples. The lower limit of quantification (LLOQ) and detection (LOD) in rat plasma for (OEG2)2-IP4 were 25 and 10 ng/mL, respectively. The upper limit of quantification (ULOQ) and detection was 5000 ng/mL.

[4] = test system: THP-1-derived macrophages; test: Macrophage viability (MTS) with CPP2 and compounds; format: cell-based, human
Protocol: as §1
(§3) THP-1 cells were plated at a density of 200,000 cells/well in a 24-well plate, differentiated as stated above, and subsequently treated with or without CPP2 (50 μg Ca/mL) in complete medium with or without test compounds (3, 10, 30, 100 μM) for 24 h at 37 °C, 5% CO2.
as §2

[5] = Macrophage viability (MTS) with CPP2 and compounds; format: cell-based, human; settings: human, THP-1-derived macrophages, read-out: Macrophage viability (MTS), % of medium control; for viability at 24 h, 3 µM: 3 µM + CPP2, replicates Fig. 3i; for viability at 24 h, 10 µM: 10 µM + CPP2; for viability at 24 h, 30 µM: 30 µM + CPP2; for viability at 24 h, 100 µM: 100 µM + CPP2
Protocol: as §1, §3, §2

[6] = 1 µM with CPP2, replicates Fig. 3f
[7] = 3 µM + CPP2, replicates Fig. 3i, 3 µM

## COCCOCCO[C@@H]1[C@@H](OP(=O)(O)O)[C@H](OCCOCCOC)[C@@H](OP(=O)(O)O)[C@@H](OP(=O)(O)O)[C@H]1OP(=O)(O)O [(OEG2)2-IP4, 4,6-Di-O-(methoxy-diethyleneglycol)-myo-inositol-1,2,3,5-tetrakis(phosphate)]
Primary human VSMCs [1]; 1 µM, replicates Fig. 3g
  VSMC calcium deposition (CPP2 = 100): 54.74% and 45.04% and 38.43%
Primary human VSMCs [1]; 10 µM
  VSMC calcium deposition (CPP2 = 100): 14.07% and 5.29% and 7.26%
Primary human VSMCs [1]; 30 µM
  VSMC calcium deposition (CPP2 = 100): 8.51% and 7.29% and 1.56%
Primary human VSMCs [1]; 100 µM
  VSMC calcium deposition (CPP2 = 100): 1.78% and 6.75% and 5.25%
Primary human VSMCs [1]; CPP1
  concentration from which calcium deposition was reduced to the level of control: ≥ 10 µM
Primary human VSMCs [2]
  VSMC viability in CPP2 setup: did not reduce VSMC viability
Primary human VSMCs [2]; [6]
  VSMC viability (MTS), % of medium control: 111.835% and 81.6116% and 105.448%
Primary human VSMCs [2]; 3 µM with CPP2
  VSMC viability (MTS), % of medium control: 87.2434% and 103.748%
Primary human VSMCs [2]; 10 µM with CPP2
  VSMC viability (MTS), % of medium control: 94.1761% and 106.452%
Primary human VSMCs [2]; 30 µM with CPP2
  VSMC viability (MTS), % of medium control: 95.6307% and 101.925%
Primary human VSMCs [2]; 100 µM with CPP2
  VSMC viability (MTS), % of medium control: 103.228% and 101.178%
[3]
  Clobs: 7.6 ± 0.5 mL/min/kg
[3]; 10 mg/kg i.v. bolus
  fold increase in plasmatic t1/2 vs IP6: ~10 fold
[3]; 5 min, individual rats Fig. 4a, unit not printed (µM per Fig. 4b), listed as INS-3001
  plasma concentration: 41.12 and 47.02 and 66.21
[3]; 15 min, unit not given, listed as INS-3001
  plasma concentration: 26.41 and 24.63 and 34.38
[3]; 30 min, unit not given, listed as INS-3001
  plasma concentration: 14.11 and 13.26 and 19.44
[3]; 60 min, unit not given, listed as INS-3001
  plasma concentration: 5.04 and 6 and 6.96
[3]; 90 min, unit not given, listed as INS-3001
  plasma concentration: 2.07 and 1.64 and 1.72
[3]; 240 min, unit not given, listed as INS-3001
  plasma concentration: 0.15 and 0.13
[3]; 360 min, unit not given, listed as INS-3001
  plasma concentration: 0.06 and 0.04 and 0.08
[3]; in vivo, 10 mg/kg i.v. bolus
  half-life: 78 ± 32 min
  Vd: 0.234 ± 0.032 L/kg
[3]; in vivo
  Cmax: 52 ± 13 µM
  MRT: 30 min
[3]; in vivo, t = 360 min
  AUC(0-t): 26.1 µM·h
[4]; [7]
  Macrophage viability (MTS), % of medium control: 98.1% and 100.05%
[4]; 10 µM + CPP2, 10 µM
  Macrophage viability (MTS), % of medium control: 99.92% and 100.59%
[4]; 30 µM + CPP2, 30 µM
  Macrophage viability (MTS), % of medium control: 96.73% and 98.39%
[4]; 100 µM + CPP2, 100 µM
  Macrophage viability (MTS), % of medium control: 94.54% and 99.09%
[5]
  viability at 24 h, 3 µM: 100%
  viability at 24 h, 10 µM: 97.5%
  viability at 24 h, 30 µM: 96.5%
  viability at 24 h, 100 µM: 99.1%

## O=P(O)(O)O[C@H]1[C@H](OP(=O)(O)O)[C@@H](OP(=O)(O)O)[C@H](OP(=O)(O)O)[C@@H](OP(=O)(O)O)[C@H]1OP(=O)(O)O [IP6, myo-Inositol hexakisphosphate]
Primary human VSMCs [1]; 3 µM
  VSMC calcium deposition (CPP2 = 100): 82.15% and 53.35% and 45.33%
Primary human VSMCs [1]; 100 µM
  VSMC calcium deposition (CPP2 = 100): 138.44% and 188.13% and 99%
Primary human VSMCs [2]; [6]
  VSMC viability (MTS), % of medium control: 94.0938% and 110.013%
Primary human VSMCs [2]; 3 µM with CPP2
  VSMC viability (MTS), % of medium control: 97.0633% and 115.505%
Primary human VSMCs [2]; 10 µM with CPP2
  VSMC viability (MTS), % of medium control: 97.8153% and 108.364%
Primary human VSMCs [2]; 30 µM with CPP2
  VSMC viability (MTS), % of medium control: 106.197% and 112.672%
Primary human VSMCs [2]; 100 µM with CPP2
  VSMC viability (MTS), % of medium control: 103.122% and 102.613% and 123.477%
[3]
  Clobs: 68.5 ± 21.2 mL/min/kg
[3]; 5 min, individual rats Fig. 4a, unit not printed (µM per Fig. 4b)
  plasma concentration: 13.9 and 17.5 and 6.9 and 6.5 and 5.5 and 5.1
[3]; plasma, 10 mg/kg i.v. bolus
  half-life: 8 ± 2 min
  Vd: 0.958 ± 0.405 L/kg
[3]; plasma
  Cmax: 13 ± 6 µM
  MRT: 14 min
[3]; plasma, t = 30 min
  AUC(0-t): 3.77 µM·h
[4]; [7]
  Macrophage viability (MTS), % of medium control: 102.11% and 100.63%
[4]; 10 µM + CPP2, 10 µM
  Macrophage viability (MTS), % of medium control: 99.19%
[4]; 30 µM + CPP2, 30 µM
  Macrophage viability (MTS), % of medium control: 96.22% and 102.8%
[4]; 100 µM + CPP2
  reduction of macrophage viability: 24%
[4]; 100 µM + CPP2, 100 µM
  Macrophage viability (MTS), % of medium control: 79.04% and 78.68%
[5]
  viability at 24 h, 3 µM: 100%
  viability at 24 h, 10 µM: 98%
  viability at 24 h, 30 µM: 95.5%
  viability at 24 h, 100 µM: 69.2%
